Assay: Inhibition of p38 kinase

IC50: 161 nM
SMILES: Fc1ccc(-c2nc3[nH]ncc3c(-c3ccc(F)cc3)c2-c2ccncc2)cc1

From ChEMBL document CHEMBL1141453, “Dissection of the recognition properties of p38 MAP kinase. Determination of the binding mode of a new pyridinyl-heterocycle inhibitor family” (J Med Chem, 2007)
